Patent US4686207A (Abbott Laboratories, priority 1985, dated 1987)
Structures can show the parent of a compound that is named as a salt.

Legend:
Staph. aureus 10649 [1] = assay: Acute mouse protection, in vivo efficacy vs. Staph. aureus 10649 (100-1000 LD50 s); design: species or system Staph. aureus (infected mouse); settings: for ED50 Oral (milk) / ED50 Subcutaneous / ED50: Acute Mouse Protection
Description: In Vivo Efficacy vs. Staph. aureus 10649
Model Number Subcutaneous
Thus, the improved oral activity of the compounds of formula I can be attributed to improved gastrointestinal absorption of these compounds.

[2] = system: gastrointestinal tissues (stomach, duodenum, jejunum and ileum); assay: Gastrointestinal stimulating activity in a dog model, overall; settings: 2 mg/kg intravenously
Procedure: Contractions in the gut were recorded with surgically implanted strain gauges.

[3] = in vivo; cited from earlier work
Staph. aureus 10649 [4] = assay: Chronic abscess model, in vivo efficacy vs. Staph. aureus 10649; design: species or system Staph. aureus (infected mouse); settings: mice pretreated with milk
Description: Thus, the improved oral activity of the compounds of formula I can be attributed to improved gastrointestinal absorption of these compounds. […] In this model, sustained blood levels of antibiotic will prevent reinfection by the organism at the abscess site after the last treatment.

[5] = pH 4; cited from earlier work
[6] = in man; cited from earlier work
[7] = Serum blood levels after oral administration to beagle dogs (FIG. 1); assay type: in vivo, beagle dog; settings: 10.0 mg/kg, solution of a buffered salt in water, three beagle dogs, 24 hours
Procedure: The serum half-lives of the new compounds have been measured in both rats and dogs (t0.5 =2-3 hours in rats, 8-12 hours in dogs). […] Similarly, erythromycin A was administered to other dogs at an equal dosage. Serum concentrations of the administered drug were determined hourly over the 24 hours following administration. The results are depicted in FIG. 1.

Acid stability = assay type: physicochemical; settings: compared with erythromycin A
[8] = oral, mice pretreated with milk
[9] = Staphylococcus aureus, 10649, po, oral, mice pretreated with milk, read-out: ED50 Oral (milk)
[10] = Staphylococcus aureus, 10649, sc, subcutaneous, read-out: ED50 Subcutaneous

With “4"-N-CBZ-sarcosyl erythryomycin A 11,12-carbonate-6,9-hemiacetal [Example 6]” the “ED50 Oral (milk)” value (Staph. aureus 10649 [1]; [8]) was 34 mg/kg and the “ED50 Subcutaneous” value (Staph. aureus 10649 [1]; subcutaneous) was 35 mg/kg.
For CC[C@H]1OC(=O)[C@H](C)[C@@H](O[C@H]2C[C@@](C)(OC)[C@@H](O)[C@H](C)O2)[C@H](C)[C@@H](O[C@@H]2O[C@H](C)C[C@H](N(C)C)[C@H]2O)[C@](C)(O)C[C@@H](C)C(=O)[C@H](C)[C@@H](O)[C@]1(C)O [erythromycin A lactobionate], the “stimulation of the stomach, duodenum, jejunum and ileum” value [2] was “pronounced stimulation”.
With CC[C@H]1OC(=O)[C@H](C)[C@@H](O[C@H]2C[C@@](C)(OC)[C@@H](O)[C@H](C)O2)[C@H](C)[C@@H](O[C@@H]2O[C@H](C)C[C@H](N(C)C)[C@H]2O)[C@](C)(O)C[C@@H](C)C(=O)[C@H](C)[C@@H](O)[C@]1(C)O [Compound 1, erythromycin A] the “ED50 Oral (milk)” value (Staph. aureus 10649 [1]; [8]) was 52 mg/kg, the “ED50 Subcutaneous” value (Staph. aureus 10649 [1]; subcutaneous) was 9 mg/kg and the ED50 (Staph. aureus 10649 [1]; [9]) was 81 mg/kg. For the same molecule, the ED50 (Staph. aureus 10649 [1]; [10]) was 6 mg/kg, the oral absorption [3] was “unreliably absorbed when administered orally” and the ED50 (Staph. aureus 10649 [4]; Staphylococcus aureus, 10649, oral) was 200 mg/kg. For the same molecule, the “antibacterial activity in an environment of high acidity” value [5] was “rapidly loses its antibacterial activity” and the serum half-life [6] was 2 to 3 h.
For “4"-N,N-dimethylglycylerythromycin A 11,12-carbonate 6,9-hemiacetal monohydrochloride salt [Example 7]”, the “ED50 Oral (milk)” value (Staph. aureus 10649 [4]) was 36 mg/kg.
Molecule CC[C@H]1OC(=O)[C@H](C)[C@@H](O[C@H]2C[C@@](C)(OC)[C@@H](OC(C)=O)[C@H](C)O2)[C@H](C)[C@@H](O[C@@H]2O[C@H](C)C[C@H](N(C)C)[C@H]2O)[C@](C)(O)C[C@@H](C)C(=O)[C@H](C)[C@@H](O)[C@]1(C)O [Compound 3, 4"-acetylerythromycin A] has an ED50 (Staph. aureus 10649 [1]; [9]) of 100 mg/kg and an ED50 (Staph. aureus 10649 [1]; [10]) of 30 mg/kg.
For CC[C@H]1OC(=O)[C@H](C)[C@@H](O[C@H]2C[C@@](C)(OC)[C@@H](OC(C)=O)[C@H](C)O2)[C@H](C)[C@@H](O[C@@H]2O[C@H](C)C[C@H](N(C)C)[C@H]2O)[C@@]2(C)C[C@@H](C)C(O)(O2)[C@H](C)[C@H]2OC(=O)O[C@@]21C [Compound 7, 4"-acetylerythromycin A 11,12-carbonate-6,9-hemiacetal free base], the “half life relative to erythromycin A” value [7] was “markedly longer half life” and the “peak blood level relative to erythromycin A” value [7] was “higher peak blood level”.
For CC[C@H]1OC(=O)[C@H](C)[C@@H](O[C@H]2C[C@@](C)(OC)[C@@H](O)[C@H](C)O2)[C@H](C)[C@@H](O[C@@H]2O[C@H](C)C[C@H](N(C)C)[C@H]2O)[C@@]2(C)C[C@@H](C)C(O)(O2)[C@H](C)[C@H]2OC(=O)O[C@@]21C [Compound 2, erythromycin A 11,12-carbonate-6,9-hemiacetal], the ED50 (Staph. aureus 10649 [1]; [9]) was 69 mg/kg, the ED50 (Staph. aureus 10649 [1]; [10]) was 15 mg/kg and the “subcutaneous versus oral activity” value (Staph. aureus 10649 [1]; Table I, milk-pretreated mice) was “more active subcutaneously than orally”. For the same molecule, the “acid stability relative to erythromycin A” value (Acid stability) was “significantly more acid-stable than erythromycin A”.
Work on CC[C@H]1OC(=O)[C@H](C)[C@@H](O[C@H]2C[C@@](C)(OC)[C@@H](OC(C)=O)[C@H](C)O2)[C@H](C)[C@@H](O[C@@H]2O[C@H](C)C[C@H](N(C)C)[C@H]2O)[C@@]2(C)C[C@@H](C)C(O)(O2)[C@H](C)[C@H]2OC(=O)O[C@@]21C [Compound 4, 4"-acetylerythromycin A 11,12-carbonate-6,9-hemiketal HCl salt] yielded an ED50 (Staph. aureus 10649 [1]; [9]) of 40 mg/kg and an ED50 (Staph. aureus 10649 [1]; [10]) of 27 mg/kg.
